Experimental data reported in patent US20080269060A1, “Herbicidal Formulation” (priority 2004, published 2008).
Values after ≈ are worked out from the molar mass of the structure shown. Like-named read-outs stand apart in the source and are kept apart here.

Columns and labels:
[1] = Storage stability of 1% mesotrione / isoxaflutole salt mixtures, 8 weeks at +45° C. vs −18° C.; assay type: physicochemical; set-up: Start: unit not given here; settings: for 45° C. / % decomposition: 8 weeks at 45° C.; for Start: held at −18° C. 8 weeks
Procedure: Millbase preparations of mesotrione and isoxaflutole were made using the following method:
The sample is placed in a round bottomed flask (˜140 mls) and mixed at 150 rpm for 15 minutes until homogeneous. An equal volume of glass beads is added to the flask (0.8-1.0 mm diameter) and the sample is milled at 650 rpm of 60 minutes. The particle size was checked. Further milling of the sample continued (60 minutes for mesotrione and 150 minutes for isoxaflutole). The particle size was checked again and all particles met the specification of 5 microns (D(4,3) volume weighted mean diameter).
The samples were extracted under vacuum through a sieve to disengage the beads from the millbases. The two millbases shown below were checked for AI content and used in the preparation of the salt mixtures. The final mixtures (see below) were then placed on storage at −18° C. (controlled initial sample) and +45° C. for 8 weeks. Analysis was then carried out using validated methods. The salts used were: glyphosate potassium aqueous solution; diquat dibromide aqueous solution; paraquat dichloride aqueous solution.
Analytical Results: storage time was 8 weeks; sample denoted as “start” was held at −18° C. for the same period.

[2] = water, cited from earlier work
[3] = Amount of mesotrione in solution by UV-visible spectrophotometry in aqueous electrolyte; assay type: physicochemical; settings: pH approximately 5
Procedure: Eight aqueous millbase formulations were made comprising mesotrione millbase (12 g/L or 10,000 approximately) and varying amounts of glyphosate-potassium, ammonium sulphate, and sodium chloride. All samples were held at a pH of approximately 5 by using phosphoric acid for adjustment. The amount of mesotrione in solution was determined using UV-visible spectrophotometry, since the aqueous solubility of mesotrione is related to the expected rate of decomposition of this active ingredient in such systems.

[4] = 1% active and diquat pH ~4, Salt % 7.50 (as diquat anion)
[5] = 1% active and diquat pH ~4, Salt % 15.00 (as diquat anion)
[6] = 1% active and diquat pH ~4, Salt % 22.50 (as diquat anion)
[7] = 1% active and paraquat pH ~4, Salt % 10.00 (as paraquat anion)
[8] = 1% active and paraquat pH ~4, Salt % 20.00 (as paraquat anion)
[9] = 1% active and paraquat pH ~4, Salt % 30.00 (as paraquat anion)
[10] = 1% active, no salt, adjusted pH 2
[11] = 1% isoxaflutole unadjusted pH 7.0, no salt
[12] = 1% active and glyphosate pH ~5, Salt % 15.00 (as glyphosate acid equivalent)
[13] = 1% active and glyphosate pH ~5, Salt % 45.00 (as glyphosate acid equivalent)
[14] = 1% mesotrione not adjusted pH 5 (pH ~4.5), no salt

CS(=O)(=O)c1cc(C(F)(F)F)ccc1C(=O)c1cnoc1C1CC1 [Isoxaflutole, 5-cyclopropyl-4-(2-methylsulfonyl-4-trifluoromethyl)benzoylisoxazole]
45° C. [1, 4]: 0.94 | % decomposition [1, 4]: 11.30% | Start [1, 4]: 1.06 | 45° C. [1, 5]: 0.94 | % decomposition [1, 5]: 9.50% | Start [1, 5]: 1.04 | 45° C. [1, 6]: 0.87 | % decomposition [1, 6]: 16.50% | Start [1, 6]: 1.04 | 45° C. [1, 7]: 0.99 | % decomposition [1, 7]: 6.00% | Start [1, 7]: 1.05 | 45° C. [1, 8]: 0.90 | % decomposition [1, 8]: 12.00% | Start [1, 8]: 1.02 | 45° C. [1, 9]: 0.80 | % decomposition [1, 9]: 7.00% | Start [1, 9]: 0.86 | 45° C. [1, 10]: 1.02 | % decomposition [1, 10]: nil | Start [1, 10]: 0.98 | 45° C. [1, 11]: 0.85 | % decomposition [1, 11]: 17.00% | Start [1, 11]: 1.06

CS(=O)(=O)c1ccc(C(=O)C2C(=O)CCCC2=O)c([N+](=O)[O-])c1 [Mesotrione, 2-(4-methylsulphonyl-2-nitrobenzoyl)cyclohexane-1,3-dione]
solubility ([2]; pH 4.8, 20° C.): 2.2 mg/mL (≈ 6.48 mM) | solubility ([2]; pH 6.9, 20° C.): 15 mg/mL (≈ 44.2 mM) | solubility ([2]; pH 9, 20° C.): 22 mg/mL (≈ 64.8 mM) | Concentration of mesotrione in solution ([3]; Ammonium sulphate solution 100 g per litre): 625 ppm | Concentration of mesotrione in solution ([3]; Ammonium sulphate solution 200 g per litre): 504 ppm | Concentration of mesotrione in solution ([3]; Ammonium sulphate solution 300 g per litre): 391 ppm | Concentration of mesotrione in solution ([3]; Ammonium sulphate solution 400 g per litre): 271 ppm | Concentration of mesotrione in solution ([3]; Ammonium sulphate solution 500 g per litre): 263 ppm | Concentration of mesotrione in solution ([3]; Potassium glyphosate 100 g per litre): 1220 ppm | Concentration of mesotrione in solution ([3]; Potassium glyphosate 200 g per litre): 700 ppm | Concentration of mesotrione in solution ([3]; Potassium glyphosate 300 g per litre): 480 ppm | Concentration of mesotrione in solution ([3]; Potassium glyphosate 360 g per litre): 290 ppm | Concentration of mesotrione in solution ([3]; Potassium glyphosate 400 g per litre): 210 ppm | Concentration of mesotrione in solution ([3]; Potassium glyphosate 500 g per litre): 180 ppm | Concentration of mesotrione in solution ([3]; Potassium glyphosate 600 g per litre): 170 ppm | Concentration of mesotrione in solution ([3]; Potassium glyphosate 640 g per litre): 160 ppm | Concentration of mesotrione in solution ([3]; Sodium Chloride 50 g per litre): 605 ppm | Concentration of mesotrione in solution ([3]; Sodium Chloride 105 g per litre): 549 ppm | Concentration of mesotrione in solution ([3]; Sodium Chloride 165 g per litre): 510 ppm | Concentration of mesotrione in solution ([3]; Sodium Chloride 230 g per litre): 479 ppm | Concentration of mesotrione in solution ([3]; Sodium Chloride 300 g per litre): 443 ppm | Concentration of mesotrione in solution ([3]; electrolyte: None): 4700 ppm | 45° C. [1, 4]: 0.96 | % decomposition [1, 4]: 9.43% | Start [1, 4]: 1.06 | 45° C. [1, 5]: 0.93 | % decomposition [1, 5]: 13.08% | Start [1, 5]: 1.07 | 45° C. [1, 6]: 0.86 | % decomposition [1, 6]: 21.10% | Start [1, 6]: 1.09 | 45° C. [1, 12]: 0.86 | % decomposition [1, 12]: 18.1% | Start [1, 12]: 1.05 | 45° C. [1, 13]: 0.80 | % decomposition [1, 13]: 14.9% | Start [1, 13]: 0.94 | 45° C. [1, 7]: 0.96 | % decomposition [1, 7]: 12.73% | Start [1, 7]: 1.10 | 45° C. [1, 8]: 0.98 | % decomposition [1, 8]: 12.50% | Start [1, 8]: 1.12 | 45° C. [1, 9]: 0.90 | % decomposition [1, 9]: 18.18% | Start [1, 9]: 1.10 | 45° C. [1, 10]: 0.96 | % decomposition [1, 10]: 10.28% | Start [1, 10]: 1.07 | 45° C. [1, 14]: 0.83 | % decomposition [1, 14]: 34.65% | Start [1, 14]: 1.27
